Measurements as given in PubChem BioAssay AID1033 (Sanford-Burnham Center for Chemical Genomics, 2008).
The source made the active and inactive calls. How the calls were made is not given here.

target: Chaperone protein DnaK (Escherichia coli (strain K12)) (UniProt P0A6Y8); test: binders of DnaK substrate-binding domain, biophysical, NMR, chaperone (AID 1033); settings: Purified DnaK SBD, NMR ligand binding
Sequence (P0A6Y8 whole entry, looked up, the tested form may be a part): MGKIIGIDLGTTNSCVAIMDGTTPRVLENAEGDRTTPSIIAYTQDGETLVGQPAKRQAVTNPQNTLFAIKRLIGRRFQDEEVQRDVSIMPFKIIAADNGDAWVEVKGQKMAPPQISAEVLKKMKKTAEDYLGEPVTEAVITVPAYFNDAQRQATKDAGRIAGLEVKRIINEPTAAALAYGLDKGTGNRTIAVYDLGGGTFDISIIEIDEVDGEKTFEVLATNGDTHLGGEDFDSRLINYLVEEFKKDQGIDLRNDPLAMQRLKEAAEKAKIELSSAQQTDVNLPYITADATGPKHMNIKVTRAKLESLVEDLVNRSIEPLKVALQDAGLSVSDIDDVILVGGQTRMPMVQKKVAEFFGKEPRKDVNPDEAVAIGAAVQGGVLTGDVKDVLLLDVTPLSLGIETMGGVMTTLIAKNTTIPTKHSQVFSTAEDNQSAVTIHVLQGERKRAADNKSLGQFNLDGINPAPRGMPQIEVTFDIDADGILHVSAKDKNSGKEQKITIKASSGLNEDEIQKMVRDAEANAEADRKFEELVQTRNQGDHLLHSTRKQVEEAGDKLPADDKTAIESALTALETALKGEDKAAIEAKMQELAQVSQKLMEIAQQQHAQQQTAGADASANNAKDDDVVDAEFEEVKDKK

| Compound | Kd |
| --- | --- |
| CC1(C)C2C[C@@H](O)[C@]3(C)C(CC[C@@]4(C)[C@H](c5ccoc5)OC(=O)[C@H]5O[C@]543)[C@@]2(C)[C@@H](O)C[C@H]1O (stereo partly drawn) | > 4 mM (inactive) |
| Nc1ncnc(NCCOCCO)c1[N+](=O)[O-] | > 4 mM (inactive) |
| COc1ccc(C(=O)NNC(=S)NC(C)=O)cc1 | > 4 mM (inactive) |
| CC(C)(C)c1cc(CN)c(C(=O)O)o1 | > 4 mM (inactive) |
| Oc1ccc(C(=S)N2CCOCC2)cc1 | > 4 mM (inactive) |
| CNC(=S)N1CCN=C1Nc1nc(C)cc(C)n1 | > 4 mM (inactive) |
| CC(=O)O[C@@H]1CC2C(C)(C)C(=O)C=C[C@]2(C)C2CC[C@]3(C)C(=CC(=O)O[C@H]3c3ccoc3)[C@@]21C (stereo partly drawn) | > 4 mM (inactive) |
| COc1ccc(NC(=O)N2CCCCC2)cc1 | > 4 mM (inactive) |
| c1ccc2c(c1)nnn2C1CCNCC1 | > 4 mM (inactive) |
| Nc1nsc(-c2ccccc2)n1 | > 4 mM (inactive) |
| O=C(O)C(CO)c1ccccc1 (stereo not drawn) | > 4 mM (inactive) |
| Nc1c(F)c(F)nc(F)c1F | > 4 mM (inactive) |
| COC(=O)C[C@H]1C(C)(C)C(OC(C)=O)[C@]2(O)C=C3C(CC[C@]4(C)C3CC(=O)O[C@H]4c3ccoc3)C1(C)C2=O (stereo partly drawn) | > 4 mM (inactive) |
| O=C1c2ccncc2C(=O)N1CO | > 4 mM (inactive) |
| C=CC(=O)N1CC2CC(C1)c1cccc(=O)n1C2 (stereo not drawn) | > 4 mM (inactive) |
| CCCc1cc(=O)[nH]c2nnc(SCC(C)=O)n12 | > 4 mM (inactive) |
| Cc1[nH]c2ccccc2c1Cc1n[nH]c(=S)n1C | > 4 mM (inactive) |
| O=C(Nc1cccc(Cl)c1)c1cnn2cccnc12 | > 4 mM (inactive) |
| O=C(Nc1ccc2c(c1)OCCO2)c1c(F)cccc1F | > 4 mM (inactive) |
| O=C(O)c1ccc2c(c1)OCO2 | > 4 mM (inactive) |
| O=S(=O)(Nc1ccc2c(c1)OCCO2)c1cccs1 | > 4 mM (inactive) |
| Cn1c(CNc2ccccc2)cc(=O)n(C)c1=O | > 4 mM (inactive) |
| COC(=O)c1nc(-c2ccccc2)oc1N(C)C | > 4 mM (inactive) |
| CC1(C)C=CC(=O)[C@@]2(C)C1CC(=O)[C@]1(C)C2CC[C@@]2(C)[C@H](c3ccoc3)OC(=O)C3OC321 (stereo partly drawn) | > 4 mM (inactive) |

| Compound | Kd |
| --- | --- |
| Cn1c(=O)c2cn3ncccc3c2n(C)c1=O | > 4 mM (inactive) |
| O=C(Nc1ccccn1)c1cc(-n2cnnc2)ccc1Cl | > 4 mM (inactive) |
| Cc1cc2nc(SCC(=O)O)nc(C)c2cc1C | > 4 mM (inactive) |
| Cc1cc(C)n(C2CCS(=O)(=O)C2)n1 (stereo not drawn) | > 4 mM (inactive) |
| c1cncc(-c2nnc(-c3cccnc3)nn2)c1 | > 4 mM (inactive) |
| O=C(O)CCSc1nc2ccccc2s1 | > 4 mM (inactive) |
| CS(=O)(=O)N1CCN(c2ccccc2F)CC1 | > 4 mM (inactive) |
| O=S(=O)(Cc1ccc(Cl)cc1)N1CCCC1 | > 4 mM (inactive) |
| NC1=NC(=O)C(CC(=O)Nc2ccccc2F)S1 (stereo not drawn) | > 4 mM (inactive) |
| NC(=O)CSc1ccc(Br)cc1 | > 4 mM (inactive) |
| CC(C)Nc1ncnc2c1nnn2C | > 4 mM (inactive) |
| O=C(Nc1cccnc1)c1c(F)c(F)c(F)c(F)c1F | > 4 mM (inactive) |
| CC(C)c1ccc2c(c1O)CC[C@H]1C3=C(CC[C@]21C)C(=O)OC3 | > 4 mM (inactive) |
| NC(=O)C1CCN(C2CC(=O)NC2=O)CC1 (stereo not drawn) | > 4 mM (inactive) |
| O=C(O)C1(S(=O)(=O)c2ccccc2)CC1 | > 4 mM (inactive) |
| O=C1CCC(=O)N1CNc1ccccc1 | > 4 mM (inactive) |
| CC(C)c1ccc2c(c1)CCC1[C@](C)(CN)CCC[C@]21C (stereo partly drawn) | > 4 mM (inactive) |
| OCc1cccs1 | > 4 mM (inactive) |
| NC(=O)CCn1c(=O)oc2ccccc21 | > 4 mM (inactive) |
| CC(=O)/C=C\[C@@H]1[C@@]2(C)CCCC(C)(C)C2CC[C@@]1(C)O (stereo partly drawn) | > 4 mM (inactive) |
| O=C(O)CC1Sc2ccccc2NC1=O (stereo not drawn) | > 4 mM (inactive) |
| O=C(Nc1cnccn1)c1ccncc1 | > 4 mM (inactive) |
| CN1CCN(C(=S)c2ccc(N(C)C)cc2)CC1 | > 4 mM (inactive) |
| Cc1cc(C(=O)NCc2cccnc2)cs1 | > 4 mM (inactive) |

| Compound | Kd |
| --- | --- |
| CN(C)C1CCS(=O)(=O)C1 (stereo not drawn) | > 4 mM (inactive) |
| O=c1c(-c2ccco2)[n+]([O-])c2ccccc2n1O | > 4 mM (inactive) |
| Cc1ccc(/C=C2/C(=O)N=C(N)N2C)s1 | > 4 mM (inactive) |
| CS(=O)(=O)N1CCN(c2ncccn2)CC1 | > 4 mM (inactive) |
| CN(c1ccc(C(=O)N2CCCCC2)cc1)S(C)(=O)=O | > 4 mM (inactive) |
| Cc1cc(C(=O)N2CCCCCC2)cs1 | > 4 mM (inactive) |
| O=C(O)CCC(=O)Nc1ccccn1 | > 4 mM (inactive) |
| Cc1cc(=O)n2[nH]c(C)cc2n1 | > 4 mM (inactive) |
| Cc1ccc(SCc2cc(=O)n3[nH]cnc3n2)cc1 | > 4 mM (inactive) |
| CC1(C)CC[C@]2(C(=O)O)CC[C@]3(C)C(=CCC4[C@@]5(C)CC[C@H](O)[C@@](C)(CO)C5CC[C@]43C)C2C1 (stereo partly drawn) | > 4 mM (inactive) |
| CC1=NN2C(=N)CC(=O)N=C2S1 | > 4 mM (inactive) |
| CC(C)(C)c1cc(NC(=O)c2cccnc2)no1 | > 4 mM (inactive) |
| O=C(CSc1ncn[nH]1)c1ccc2c(c1)OCCO2 | > 4 mM (inactive) |
| Cn1c(=O)cc(O)c2ccccc21 | > 4 mM (inactive) |
| O=[n+]1cc(C2=CC=CCC2)n([O-])c2c1CCCCC2 | > 4 mM (inactive) |
| CCNC(=O)CC[C@H](N)C(=O)O | > 4 mM (inactive) |
| O=C1NC(=O)/C(=C/c2ccc(O)cc2)N1 | > 4 mM (inactive) |
| CC(=O)c1c(O)cc(O)cc1O | > 4 mM (inactive) |
| Nc1ncnc(Nc2ccccc2C(F)(F)F)n1 | > 4 mM (inactive) |
| O=C(CN1CCOCC1)Nc1nccs1 | > 4 mM (inactive) |
| CC(=O)NC(=S)Nc1ccc(C(C)=O)cc1 | > 4 mM (inactive) |
| O=c1c(-c2cc(O)c(O)c(O)c2)coc2cc(O)c(O)c(O)c12 | > 4 mM (inactive) |
| COC(=O)C1=CO[C@@H](O[C@@H]2O[C@H](CO)[C@@H](O)[C@H](O)[C@H]2O)[C@@H]2[C@@H](C)[C@@H](O)C[C@H]12 | > 4 mM (inactive) |
| CC(C)(C)CC(=O)N1CCC(C(N)=O)CC1 | > 4 mM (inactive) |

| Compound | Kd |
| --- | --- |
| O=S(=O)(O)c1cc[n+]([O-])cc1 | > 4 mM (inactive) |
| NCc1ccc(N2CCOCC2)cc1 | > 4 mM (inactive) |
| COc1cc2c3cc1Oc1c(OC)c(OC)cc4c1[C@@H](Cc1cccc(c1)Oc1ccc(c(O)c1)C[C@@H]3N(C)CC2)N(C)CC4 | > 4 mM (inactive) |
| O=C(NC1=NCCS1)c1csc2ccccc12 | > 4 mM (inactive) |
| Cc1ccnc(NS(=O)(=O)c2ccccc2)n1 | > 4 mM (inactive) |
| COc1ccc(C2NC(C(=O)O)CS2)cc1 (stereo not drawn) | > 4 mM (inactive) |
| COc1ccc2c(c1)[n+](=O)c(C(C)=O)c(C)n2[O-] | > 4 mM (inactive) |
| Cc1c(C(=O)Nc2cnccn2)oc2ccccc12 | > 4 mM (inactive) |
| COc1c2c(cc3c1OCO3)C13C=C[C@H](OC)CC1N(C2)CC3O (stereo partly drawn) | > 4 mM (inactive) |
| S=c1nc(Cc2ccccc2)[nH][nH]1 | > 4 mM (inactive) |
| c1ccc(Cc2nnc(-c3ccccc3)o2)cc1 | > 4 mM (inactive) |
| CCN1CCC(NC2CCC(O)CC2)CC1 (stereo not drawn) | > 4 mM (inactive) |
| O=C(/C=C/c1ccccc1)c1ccc(O[C@@H]2O[C@H](CO)[C@@H](O)[C@H](O)[C@H]2O)cc1O | > 4 mM (inactive) |
| NC(=O)c1ccccc1N=Cc1ccco1 | > 4 mM (inactive) |
| O=C(O)Cn1nnnc1-c1ccc(F)cc1 | > 4 mM (inactive) |
| Cc1nccc(-c2cccc(N)c2)n1 | > 4 mM (inactive) |
| N#Cc1cc2ccccc2nc1N | > 4 mM (inactive) |
| CN1CCC(NC(=O)Cc2c(F)cccc2Cl)CC1 | > 4 mM (inactive) |
| Cc1nc(-c2ccc(NS(C)(=O)=O)cc2)cs1 | > 4 mM (inactive) |
| O=c1c(O)c(-c2ccc(O)c(O)c2)oc2cc(O)ccc12 | > 4 mM (inactive) |
| O=C(O)CN1CCN(C2CCCC2)CC1 | > 4 mM (inactive) |
| COc1cccc(Oc2ccc(N)cn2)c1 | > 4 mM (inactive) |
| Cn1nc(C(C)(C)C)cc1N | > 4 mM (inactive) |
| O=P(O)(Cc1ccccc1)c1ccccc1 | > 4 mM (inactive) |

| Compound | Kd |
| --- | --- |
| COc1c2c(cc3cc[n+](C)cc13)OCO2 | > 4 mM (inactive) |
| COc1ccc(-c2cc(=O)c3ccccc3o2)cc1OC | > 4 mM (inactive) |
| C=CCc1ccc(O)c(OC)c1 | > 4 mM (inactive) |
| NC(=O)Cn1nc(-c2ccco2)ccc1=O | > 4 mM (inactive) |
| Cc1ccc(NC(=O)C(=O)Nc2ccccn2)cc1 | > 4 mM (inactive) |
| Cc1[nH]c(=O)[nH]c(=O)c1N1CCOCC1 | > 4 mM (inactive) |
| O=C(O)c1cccc(CSc2ncccn2)c1 | > 4 mM (inactive) |
| CN(C)C(=O)c1ccccc1-c1ccccc1 | > 4 mM (inactive) |
| S=C(NCC1CCCO1)NC1CC1 (stereo not drawn) | > 4 mM (inactive) |
| Cc1nn(-c2ccccc2)nc1C(N)=O | > 4 mM (inactive) |
| Cc1ccccc1NC(=O)c1ocnc1C | > 4 mM (inactive) |
| Cc1cc(=O)c2ccccc2n1CC(N)=O | > 4 mM (inactive) |
| COc1ncnc(N)c1[N+](=O)[O-] | > 4 mM (inactive) |
| Nc1nc2ccc(N3CCOCC3)cc2s1 | > 4 mM (inactive) |
| O/N=C1/CCCc2nonc21 | > 4 mM (inactive) |
| Cc1cc(NC(=O)c2ccc3c(c2)OCCO3)no1 | > 4 mM (inactive) |
| CC(C)(C)C(=O)Nc1nnc(SCC(N)=O)s1 | > 4 mM (inactive) |
| CC1=C(C(N)=O)C(c2ccco2)C(C(N)=O)=C(C)N1 | > 4 mM (inactive) |
| CC(C)=CC(=O)Nc1ccc2c(c1)OCO2 | > 4 mM (inactive) |
| CC(=O)O[C@H]1CC[C@@]2(C)C(CC[C@]3(C)C2C(=O)C=C2C4[C@@H](C)[C@H](C)CC[C@]4(C(=O)O)CC[C@]23C)C1(C)C (stereo partly drawn) | > 4 mM (inactive) |
| Nc1cccc2c(=O)[nH][nH]c(=O)c12 | > 4 mM (inactive) |
| O=C1CC(=O)N(c2cccc(Cl)c2)N1 | > 4 mM (inactive) |
